Results reported in US20260115209A1, “COMBINATION THERAPY INCLUDING COX-2 INHIBITOR FOR THE TREATMENT OF CANCER” (THE REGENTS OF THE UNIVERSITY OF CALIFORNIA, priority 2022, published 2026).

Tested on: SRC
Assay: High throughput kinase-activity mapping (HT-KAM) of treated cell extracts
Assay type: cell-based
Settings: WiDr cells treated 8 hours with vemurafenib ± gefitinib or cetuximab; FIG. 1B
Description: For samples to be analyzed with the HT-KAM platform, cells at ˜85% confluency were washed three times with cold PBS and lysed with freshly prepared 1× cell lysis buffer (1 ml per 2.5×10^6 cells) (lOX Cell Lysis Buffer, Cell Signaling; cat. #9803) complemented with 1× of Halt Protease & Phosphatase (100×, ThermoScientific; cat. #1861281). Cell lysates were collected and spun down at 14,000 rpm for 15 min at 4° C. and supernatants stored at −80° C. For samples to be analyzed by western blot, cell lysates were prepared with RIPA lysis buffer (150 mM NaCl, 0.1% SDS, 1% Nonidet P40, 1% sodium deoxycholate and 10 mM sodium phosphate, pH 7.2) supplemented with protease and phosphatase inhibitors. After clearing by centrifugation at 12,000 rpm for 10 minutes at 4° C., the lysates were analyzed as described in the respective experiments.
This high throughput kinase-activity mapping (HT-KAM) platform uses arrays of peptides that act as sensors of phosphorylation activity (7). The phospho-catalytic signature of samples is established from simultaneously occurring ATP-consumption tests measured in the presence of individual peptides that are experimentally isolated from each other. […] Luminescence is acquired using the Synergy 2 Multi-Mode Microplate Reader from BioTek. Luminescence data are inversely correlated with the amount of kinase activity. […]

CCCS(=O)(=O)Nc1ccc(F)c(C(=O)c2c[nH]c3ncc(-c4ccc(Cl)cc4)cc23)c1F [vemurafenib, N-[3-[5-(4-chlorophenyl)-1H-pyrrolo[2,3-b]pyridine-3-carbonyl]-2,4-difluorophenyl]propane-1-sulfonamide]
SRC kinase activity: most significantly increased kinase activity
